In patent publication US9469650B2, “Melampomagnolide B derivatives” (BOARD OF TRUSTEES OF THE UNIVERSITY OF ARKANSAS, priority 2013, dated 2016):
Read-outs that look alike come from different tables or passages of the source.

Columns and labels:
[1] = tested on: UACC-257; test: panel of 60 human tumor cell lines, growth inhibition (Melanoma); details: UACC-257
[2] = tested on: SK-MEL-5; test: as above; details: 8K-MEL-5
[3] = tested on: T-47D; test: panel of 60 human tumor cell lines, growth inhibition (Breast Cancer); details: T-47D
[4] = tested on: MDA-MB-468; test: as above; details: MDA-MB-468
[5] = tested on: MOLT-4; test: panel of 60 human tumor cell lines, growth inhibition (Leukemia); details: MOLT-4
[6] = tested on: NCI-H460; test: panel of 60 human tumor cell lines, growth inhibition (Non-Small Cell Lung Cancer); details: NCI-H460
[7] = tested on: A498; test: panel of 60 human tumor cell lines, growth inhibition (Renal Cancer); details: A498
[8] = tested on: HOP-92; test: panel of 60 human tumor cell lines, growth inhibition (Non-Small Cell Lung Cancer); details: HOP-92
[9] = tested on: U251; test: panel of 60 human tumor cell lines, growth inhibition (CNS Cancer); details: U251
[10] = tested on: HOP-62; test: panel of 60 human tumor cell lines, growth inhibition (Non-Small Cell Lung Cancer); details: HOP-62
[11] = tested on: HS 578T; test: panel of 60 human tumor cell lines, growth inhibition (Breast Cancer); details: HS 578T
[12] = tested on: NCI-H226; test: panel of 60 human tumor cell lines, growth inhibition (Non-Small Cell Lung Cancer); details: NCI-H226
[13] = tested on: DU-145; test: panel of 60 human tumor cell lines, growth inhibition (Prostate Cancer); details: DU-145
[14] = tested on: HL-60(TB)
[15] = tested on: OVCAR-3; test: panel of 60 human tumor cell lines, growth inhibition (Ovarian Cancer); details: OVCAR-3
[16] = tested on: K-562; test: panel of 60 human tumor cell lines, growth inhibition (Leukemia); details: K-562
[17] = tested on: 786-0; test: panel of 60 human tumor cell lines, growth inhibition (Renal Cancer); details: 786-0
[18] = tested on: PC-3; test: panel of 60 human tumor cell lines, growth inhibition (Prostate Cancer); details: PC-3

Question: What does the source list for `C=C1C(=O)O[C@H]2[C@H]1CC/C(COC(=O)NC)=C\CC[C@@]1(C)O[C@@H]21` [JVM 2-57]?
Answer: Percent Growth ([1]; Log10 Concentration −4.0): −91%; Percent Growth ([1]; Log10 Concentration −5.0): 24%; Percent Growth ([1]; Log10 Concentration −6.0): 73%; Percent Growth ([1]; Log10 Concentration −7.0): 94%; Percent Growth ([1]; Log10 Concentration −8.0): 94%; GI50 ([1]; NCI five dose): 2960 nM; TGI ([1]; NCI five dose): 1.62E−5; Percent Growth ([2]; Log10 Concentration −4.0): −73%; Percent Growth ([2]; Log10 Concentration −5.0): 56%; Percent Growth ([2]; Log10 Concentration −6.0): 97%; Percent Growth ([2]; Log10 Concentration −7.0): 98%; Percent Growth ([2]; Log10 Concentration −8.0): 100%; GI50 ([2]; NCI five dose): 11.1 µM; TGI ([2]; NCI five dose): 2.70E−5; Percent Growth ([3]; Log10 Concentration −4.0): −80%; Percent Growth ([3]; Log10 Concentration −5.0): −4%; Percent Growth ([3]; Log10 Concentration −6.0): 81%; Percent Growth ([3]; Log10 Concentration −7.0): 86%; Percent Growth ([3]; Log10 Concentration −8.0): 94%; GI50 ([3]; NCI five dose): 2320 nM; TGI ([3]; NCI five dose): 9.04E−6; Percent Growth ([4]; Log10 Concentration −4.0): −65%; Percent Growth ([4]; Log10 Concentration −5.0): −18%; Percent Growth ([4]; Log10 Concentration −6.0): 58%; Percent Growth ([4]; Log10 Concentration −7.0): 99%; Percent Growth ([4]; Log10 Concentration −8.0): 100%; GI50 ([4]; NCI five dose): 1260 nM; TGI ([4]; NCI five dose): 5.83E−6; Percent Growth ([5]; Log10 Concentration −4.0): −39%; Percent Growth ([5]; Log10 Concentration −5.0): 8%; Percent Growth ([5]; Log10 Concentration −6.0): 98%; Percent Growth ([5]; Log10 Concentration −7.0): 90%; Percent Growth ([5]; Log10 Concentration −8.0): 97%; GI50 ([5]; NCI five dose): 3.4 µM; TGI ([5]; NCI five dose): 1.49E−5; Percent Growth ([6]; Log10 Concentration −4.0): −65%; Percent Growth ([6]; Log10 Concentration −5.0): 78%; Percent Growth ([6]; Log10 Concentration −6.0): 101%; Percent Growth ([6]; Log10 Concentration −7.0): 103%; Percent Growth ([6]; Log10 Concentration −8.0): 103%; GI50 ([6]; NCI five dose): 15.6 µM; TGI ([6]; NCI five dose): 3.49E−5; Percent Growth ([7]; Log10 Concentration −4.0): −90%; Percent Growth ([7]; Log10 Concentration −5.0): 32%; Percent Growth ([7]; Log10 Concentration −6.0): 66%; Percent Growth ([7]; Log10 Concentration −7.0): 70%; Percent Growth ([7]; Log10 Concentration −8.0): 71%; GI50 ([7]; NCI five dose): 2970 nM; TGI ([7]; NCI five dose): 1.84E−5; Percent Growth ([8]; Log10 Concentration −4.0): −95%; Percent Growth ([8]; Log10 Concentration −5.0): −9%; Percent Growth ([8]; Log10 Concentration −6.0): 83%; Percent Growth ([8]; Log10 Concentration −7.0): 91%; Percent Growth ([8]; Log10 Concentration −8.0): 92%; GI50 ([8]; NCI five dose): 2260 nM; TGI ([8]; NCI five dose): 7.90E−6; Percent Growth ([9]; Log10 Concentration −4.0): −100%; Percent Growth ([9]; Log10 Concentration −5.0): 81%; Percent Growth ([9]; Log10 Concentration −6.0): 92%; Percent Growth ([9]; Log10 Concentration −7.0): 97%; Percent Growth ([9]; Log10 Concentration −8.0): 99%; GI50 ([9]; NCI five dose): 14.9 µM; TGI ([9]; NCI five dose): 2.81E−5; Percent Growth ([10]; Log10 Concentration −4.0): −86%; Percent Growth ([10]; Log10 Concentration −5.0): 72%; Percent Growth ([10]; Log10 Concentration −6.0): 92%; Percent Growth ([10]; Log10 Concentration −7.0): 86%; Percent Growth ([10]; Log10 Concentration −8.0): 95%; GI50 ([10]; NCI five dose): 13.9 µM; TGI ([10]; NCI five dose): 2.87E−5; Percent Growth ([11]; Log10 Concentration −4.0): 7%; Percent Growth ([11]; Log10 Concentration −5.0): 65%; Percent Growth ([11]; Log10 Concentration −6.0): 87%; Percent Growth ([11]; Log10 Concentration −7.0): 92%; Percent Growth ([11]; Log10 Concentration −8.0): 91%; GI50 ([11]; NCI five dose): 18.4 µM; TGI ([11]; NCI five dose): >1.00E−4; Percent Growth ([12]; Log10 Concentration −4.0): −52%; Percent Growth ([12]; Log10 Concentration −5.0): 49%; Percent Growth ([12]; Log10 Concentration −6.0): 86%; Percent Growth ([12]; Log10 Concentration −7.0): 101%; Percent Growth ([12]; Log10 Concentration −8.0): 92%; GI50 ([12]; NCI five dose): 9.29 µM; TGI ([12]; NCI five dose): 3.06E−5; Percent Growth ([13]; Log10 Concentration −4.0): −97%; Percent Growth ([13]; Log10 Concentration −5.0): 19%; Percent Growth ([13]; Log10 Concentration −6.0): 93%; Percent Growth ([13]; Log10 Concentration −7.0): 103%; Percent Growth ([13]; Log10 Concentration −8.0): 104%; GI50 ([13]; NCI five dose): 3.78 µM; TGI ([13]; NCI five dose): 1.45E−5; Percent Growth ([14]; Log10 Concentration −4.0): −55%; Percent Growth ([14]; Log10 Concentration −5.0): −11%; Percent Growth ([14]; Log10 Concentration −6.0): 84%; Percent Growth ([14]; Log10 Concentration −7.0): 91%; Percent Growth ([14]; Log10 Concentration −8.0): 96%; GI50 ([14]; NCI five dose): 2280 nM; TGI ([14]; NCI five dose): 7.73E−6; CC50 ([14]; read-out: LC50, NCI five dose): 77.2 µM; Percent Growth ([15]; Log10 Concentration −4.0): −100%; Percent Growth ([15]; Log10 Concentration −5.0): 7%; Percent Growth ([15]; Log10 Concentration −6.0): 86%; Percent Growth ([15]; Log10 Concentration −7.0): 100%; Percent Growth ([15]; Log10 Concentration −8.0): 99%; GI50 ([15]; NCI five dose): 2870 nM; TGI ([15]; NCI five dose): 1.17E−5; Percent Growth ([16]; Log10 Concentration −4.0): −16%; Percent Growth ([16]; Log10 Concentration −5.0): 16%; Percent Growth ([16]; Log10 Concentration −6.0): 92%; Percent Growth ([16]; Log10 Concentration −7.0): 92%; Percent Growth ([16]; Log10 Concentration −8.0): 99%; GI50 ([16]; NCI five dose): 3.58 µM; TGI ([16]; NCI five dose): 3.20E−5; Percent Growth ([17]; Log10 Concentration −4.0): −88%; Percent Growth ([17]; Log10 Concentration −5.0): 38%; Percent Growth ([17]; Log10 Concentration −6.0): 93%; Percent Growth ([17]; Log10 Concentration −7.0): 90%; Percent Growth ([17]; Log10 Concentration −8.0): 96%; GI50 ([17]; NCI five dose): 5.94 µM; TGI ([17]; NCI five dose): 1.99E−5; Percent Growth ([18]; Log10 Concentration −4.0): −70%; Percent Growth ([18]; Log10 Concentration −5.0): 67%; Percent Growth ([18]; Log10 Concentration −6.0): 96%; Percent Growth ([18]; Log10 Concentration −7.0): 97%; Percent Growth ([18]; Log10 Concentration −8.0): 98%; GI50 ([18]; NCI five dose): 13.3 µM; TGI ([18]; NCI five dose): 3.08E−5
